# Numbers after ± are expanded uncertainties.
# Test: osmotic coefficient (dimensionless); mn = molality of the nth substance listed, in mol/kg
# Conditions: 298.15 K, 97.5 kPa, Liquid, vapour pressure osmometry
compound,measurement,setting,value
O=Cc1ccc(CO)o1 [5-(hydroxymethyl)furan-2-carbaldehyde] + O,osmotic coefficient,m1 = 0.496,0.85 ± 0.024
same,osmotic coefficient,m1 = 0.991,0.73 ± 0.022
same,osmotic coefficient,m1 = 1.483,0.635 ± 0.021
same,osmotic coefficient,m1 = 1.98,0.572 ± 0.022
same,osmotic coefficient,m1 = 2.473,0.521 ± 0.022
same,osmotic coefficient,m1 = 2.967,0.462 ± 0.023
same,osmotic coefficient,m1 = 3.459,0.442 ± 0.023
same,osmotic coefficient,m1 = 3.95,0.396 ± 0.024
same,osmotic coefficient,m1 = 4.444,0.378 ± 0.024
same,osmotic coefficient,m1 = 4.935,0.37 ± 0.024
